Counter-ions that a name gives are not always drawn.
What was measured:
[1] = test system: constitutive active colorectal cancer cell (CRC) Wnt pathway; assay: HCT116 TOPFlash cellular reporter assay (Super TopFlash luciferase), constitutive active Wnt pathway; type: cell-based; conditions: HCT116 TOP reporter cells, 36 hours incubation, luciferase expression
Procedure: In order to discover and characterize small molecules which inhibit the constitutive active colorectal cancer cell (CRC) Wnt pathway, a cellular reporter assay was employed. […] Stable transfectants were generated by cotransfection with pcDNA3 and selection of stable transfected cells with 1 mg/ml G418.

[2] = test system: HCT116 FOP control reporter cell line; assay: HCT116 FOPFlash control reporter assay (FOP control vector, non-functional TCF elements); type: cell-based; conditions: HCT116 FOP control reporter cells, 36 hours incubation, luciferase expression
Source text: In a parallel approach, HCT116 cells were cotransfected with the FOP control vector and pcDNA3. The FOP vector is identical to the TOP construct, but it contains instead of functional TCF elements a randomized, non-functional sequence. For this transfection a stable transfected cell line was generated as well.

SMILES | IC50 [1] | IC50 [2] | IC50 ([1]; Homo sapiens, HCT-116, 36 h) | IC50 ([2]; Homo sapiens, HCT-116, 36 h)
CC(C(=O)Nc1cc(C(=O)Nc2ccc(-c3cc(F)cc(F)c3)nc2)ccc1OC(F)(F)F)N1C[C@@H]2C[C@H]1CO2 (relative stereo) [Example 180, N-[6-(3,5-difluorophenyl)pyridin-3-yl]-3-({(2R*)-2-[(1S,4S)-2-oxa-5-azabicyclo[2.2.1]hept-5-yl]propanoyl}amino)-4-(trifluoromethoxy)benzamide] | 148 nM | 9800 nM |  | 
CC(C(=O)Nc1cc(C(=O)Nc2ccc(-c3cc(F)cc(F)c3)nc2)ccc1OC(F)(F)F)N1C[C@@H]2C[C@H]1CO2 (relative stereo) [Example 181, N-[6-(3,5-difluorophenyl)pyridin-3-yl]-3-({(2S*)-2-[(1S,4S)-2-oxa-5-azabicyclo[2.2.1]hept-5-yl]propanoyl}amino)-4-(trifluoromethoxy)benzamide] | 53 nM | ≥ 50000 nM |  | 
CC(C(=O)Nc1cc(NC(=O)c2ccc(-c3cc(F)cc(F)c3)nc2)ccc1OC(F)(F)F)N1C[C@@H]2C[C@H]1CO2 (relative stereo) [Example 185, 6-(3,5-difluorophenyl)-N-[3-({(2R*)-2-[(1S,4S)-2-oxa-5-azabicyclo[2.2.1]hept-5-yl]propanoyl}amino)-4-(trifluoromethoxy)phenyl] nicotinamide] | 160 nM | 10000 nM |  | 
CC(C(=O)Nc1cc(NC(=O)c2ccc(-c3cccc(F)c3)nc2)ccc1OC(F)(F)F)N1C[C@@H]2C[C@H]1CO2 (relative stereo) [Example 193, 6-(3-fluorophenyl)-N-[3-({(2R*)-2-[(1S,4S)-2-oxa-5-azabicyclo[2.2.1]hept-5-yl]propanoyl}amino)-4-(trifluoromethoxy)phenyl] nicotinamide] |  |  | 148 nM | 8800 nM
CC(C(=O)Nc1cc(NC(=O)c2ccc(-c3cc(F)cc(F)c3)nc2)ccc1OC(F)(F)F)N1C[C@@H]2C[C@H]1CO2 (relative stereo) [Example 217, 6-(3,5-difluorophenyl)-N-[3-({(2S*)-2-[(1S,4S)-2-oxa-5-azabicyclo[2.2.1]hept-5-yl]propanoyl}amino)-4-(trifluoromethoxy)phenyl] nicotinamide] | 438 nM | ≥ 50000 nM |  | 
CC(C(=O)Nc1cc(NC(=O)c2ccc(-c3cccc(F)c3)nc2)ccc1OC(F)(F)F)N1C[C@@H]2C[C@H]1CO2 (relative stereo) [Example 222, 6-(3-fluorophenyl)-N-[3-({(2S*)-2-[(1S,4S)-2-oxa-5-azabicyclo[2.2.1]hept-5-yl]propanoyl}amino)-4-(trifluoromethoxy)phenyl] nicotinamide] | 263 nM | 15200 nM |  | 
CC(C(=O)Nc1cc(C(=O)Nc2ccc(-c3cccc(F)c3)nc2)ccc1OC(F)(F)F)N1C[C@@H]2C[C@H]1CO2 (relative stereo) [Example 243, N-[6-(3-fluorophenyl)pyridin-3-yl]-3-({(2R*)-2-[(1S,4S)-2-oxa-5-azabicyclo[2.2.1]hept-5-yl]propanoyl}amino)-4-(trifluoromethoxy)benzamide] | 28 nM | 7700 nM |  | 
CC(C(=O)Nc1cc(C(=O)Nc2ccc(-c3cccc(F)c3)nc2)ccc1OC(F)(F)F)N1C[C@@H]2C[C@H]1CO2 (relative stereo) [Example 244, N-[6-(3-fluorophenyl)pyridin-3-yl]-3-({(2S*)-2-[(1S,4S)-2-oxa-5-azabicyclo[2.2.1]hept-5-yl]propanoyl}amino)-4-(trifluoromethoxy)benzamide] | 120 nM | ≥ 50000 nM |  | 
C[C@@H](C(=O)Nc1cc(C(=O)Nc2ccc(-c3ccc(N(C)C)cc3)nc2)ccc1OC(F)(F)F)N1CCOCC1 (single isomer, unassigned) [Example 116, N-{6-[4-(dimethylamino)phenyl]pyridin-3-yl}-3-{[(2S)-2-(morpholin-4-yl)propanoyl]amino}-4-(trifluoromethoxy)benzamide or N-{6-[4-(dimethylamino)phenyl]pyridin-3-yl}-3-{[(2R)-2-(morpholin-4-yl)propanoyl]amino}-4-(trifluoromethoxy)benzamide] | 84 nM | 8100 nM |  | 
C[C@@H](C(=O)Nc1cc(C(=O)Nc2ccc(-c3ccc(N)cc3)nc2)ccc1OC(F)(F)F)N1CCOCC1 (single isomer, unassigned) [Example 118, N-[6-(4-aminophenyl)pyridin-3-yl]-3-{[(2R)-2-(morpholin-4-yl)propanoyl]amino}-4-(trifluoromethoxy)benzamide or N-[6-(4-aminophenyl)pyridin-3-yl]-3-{[(2S)-2-(morpholin-4-yl)propanoyl]amino}-4-(trifluoromethoxy)benzamide] |  | ≥ 50000 nM |  | 
C[C@@H](C(=O)Nc1cc(C(=O)Nc2ccc(-c3ccc(CO)cc3)nc2)ccc1OC(F)(F)F)N1CCOCC1 (single isomer, unassigned) [Example 119, N-{6-[4-(hydroxymethyl)phenyl]pyridin-3-yl}-3-{[(2S)-2-(morpholin-4-yl)propanoyl]amino}-4-(trifluoromethoxy)benzamide or N-{6-[4-(hydroxymethyl)phenyl]pyridin-3-yl}-3-{[(2R)-2-(morpholin-4-yl)propanoyl]amino}-4-(trifluoromethoxy)benzamide] | 650 nM | ≥ 50000 nM |  | 
C[C@@H](C(=O)Nc1cc(C(=O)Nc2ccc(-c3ccc(CO)cc3)nc2)ccc1OC(F)(F)F)N1CCOCC1 (single isomer, unassigned) [Example 120, N-{6-[4-(hydroxymethyl)phenyl]pyridin-3-yl}-3-{[(2S)-2-(morpholin-4-yl)propanoyl]amino}-4-(trifluoromethoxy)benzamide or N-{6-[4-(hydroxymethyl)phenyl]pyridin-3-yl}-3-{[(2R)-2-(morpholin-4-yl)propanoyl]amino}-4-(trifluoromethoxy)benzamide] | 105 nM | ≥ 50000 nM |  | 
COc1ccc(C(=O)Nc2ccc(-c3ccccc3F)nc2)cc1NC(=O)CN1C[C@@H]2C[C@H]1CO2 [Example 3, N-[6-(2-fluorophenyl)pyridin-3-yl]-4-methoxy-3-{[(1S,4S)-2-oxa-5-azabicyclo[2.2.1]hept-5-ylacetyl]amino}benzamide] |  |  | 1800 nM | ≥ 50000 nM
COc1ccc(C(=O)Nc2ccc(-c3ccccc3)nc2)cc1NC(=O)CN1CCOCC1 [Example 4, 4-methoxy-3-[(morpholin-4-ylacetyl)amino]-N-(6-phenylpyridin-3-yl)benzamide] |  |  | 300 nM | ≥ 50000 nM
O=C(CN1CCOCC1)Nc1cc(C(=O)Nc2ccc(-c3ccccc3F)nc2)ccc1OC(F)(F)F [Example 5, N-[6-(2-fluorophenyl)pyridin-3-yl]-3-[(morpholin-4-ylacetyl)amino]-4-(trifluoromethoxy)benzamide] |  |  | 40.3 nM | ≥ 50000 nM
O=C(CN1CCOCC1)Nc1cc(C(=O)Nc2ncc(-c3ccccc3)s2)ccc1C(F)(F)F [Example 12, 3-[(morpholin-4-ylacetyl)amino]-N-(5-phenyl-1,3-thiazol-2-yl)-4-(trifluoromethyl)benzamide] |  |  | 530 nM | ≥ 50000 nM
O=C(CN1CCOCC1)Nc1cc(C(=O)Nc2ccc(-c3ccccc3)nc2)ccc1C(F)(F)F [Example 13, 3-[(morpholin-4-ylacetyl)amino]-N-(6-phenylpyridin-3-yl)-4-(trifluoromethyl)benzamide] |  |  | 362 nM | ≥ 50000 nM
CC(C)(C)c1ccc(NC(=O)c2ccc(-c3ccccc3)nc2)cc1NC(=O)CN1CCOCC1 [Example 18, N-{4-tert-butyl-3-[(morpholin-4-ylacetyl)amino]phenyl}-6-phenylnicotinamide] |  |  | 444 nM | 9900 nM
COc1ccc(NC(=O)c2ncc(-c3ccccc3)s2)cc1NC(=O)CN1CCOCC1 [Example 23, N-{4-methoxy-3-[(morpholin-4-ylacetyl)amino]phenyl}-5-phenyl-1,3-thiazole-2-carboxamide] |  |  | 98 nM | ≥ 50000 nM
COc1ccc(NC(=O)c2ccc(-c3ccccc3)[nH]2)cc1NC(=O)CN1CCOCC1 [Example 24, N-{4-methoxy-3-[(morpholin-4-ylacetyl)amino]phenyl}-5-phenyl-1H-pyrrole-2-carboxamide] |  |  |  | ≥ 50000 nM
O=C(CN1CCOCC1)Nc1cc(NC(=O)c2ccc(-c3c(F)cccc3F)nc2)ccc1OC(F)(F)F [Example 29, 6-(2,6-difluorophenyl)-N-{3-[(morpholin-4-ylacetyl)amino]-4-(trifluoromethoxy)phenyl}nicotinamide] |  |  | 156 nM | ≥ 50000 nM
COc1ccc(NC(=O)c2ccc(-c3ccccc3F)nc2)cc1NC(=O)CN1CCOCC1 [Example 31, 6-(2-fluorophenyl)-N-{4-methoxy-3-[(morpholin-4-ylacetyl)amino]phenyl}nicotinamide] |  |  | 805 nM | 36000 nM
O=C(CN1CCOCC1)Nc1cc(NC(=O)c2cc(-c3ccccc3)[nH]n2)ccc1OC(F)(F)F [Example 124, N-{3-[(morpholin-4-ylacetyl)amino]-4-(trifluoromethoxy)phenyl}-5-phenyl-1H-pyrazole-3-carboxamide] |  |  |  | ≥ 50000 nM
CC(C(=O)Nc1cc(C(=O)Nc2nnc(-c3ccccc3)s2)ccc1CS(C)(=O)=O)N1CCN(C)CC1 (stereo not drawn) [Example 230, 3-{[2-(4-methylpiperazin-1-yl)propanoyl]amino}-4-[(methylsulfonyl)methyl]-N-(5-phenyl-1,3,4-thiadiazol-2-yl)benzamide trifluoroacetate (1:1)] |  |  | 720 nM | 
CC(C(=O)Nc1cc(C(=O)Nc2nnc(-c3ccccc3)s2)ccc1OC(F)(F)F)N1CCOCC1 (stereo not drawn) [Example 242, 3-{[2-(morpholin-4-yl)propanoyl]amino}-N-(5-phenyl-1,3,4-thiadiazol-2-yl)-4-(trifluoromethoxy)benzamide] |  | ≥ 50000 nM |  | 
